Assay results reported in PMC5352194, “Toward the development of a novel non-RGD cyclic peptide drug conjugate for treatment of human metastatic melanoma” (Oncotarget, 2016).

Experiments:
[1] = tested on: WM-266-4 human metastatic melanoma cells; assay: Cell survival test (XTT assay), WM-266-4; type: cell-based; conditions: WM-266-4 cells, 10μM, 48 hours, three repeats in quadruplicates
Procedure: (§1) The cytotoxicity of the compounds was determined by measuring the mitochondrial enzyme activity, using a commercial XTT assay kit (#20-30-100, Biological Industries, Beit-Haemek, Israel) according to the manufacturer protocol using 2×10^3 cells/well of a 96–well plate. The cells were cultured for 24 hours in growth medium followed by additional 48 hours with growth medium supplemented with different concentrations of the tested substances. The absorbance of the XTT reagent was measured with a TECAN Infinite M200 ELISA reader. The absorbencies were normalized to the absorbance of cells grown in medium and solvent. All the tests were repeated three times in quadruplicates.

[2] = tested on: non-malignant HEK293 cells; assay: Cell survival test (XTT assay), HEK293; type: cell-based, human; conditions: 48 hours, XTT (experiment repeated as for WM-266-4, 10μM), three repeats in quadruplicates
Procedure: as §1

WM-266-4 cells = assay: Confocal analysis of intracellular localization of CPT in live cells; type: cell-based, human; conditions: live WM-266-4 cells, 10 μM, 1 h, CPT fluorescence
Description: Fluorescent images of ALOS4-FITC were acquired by Photometrics CoolSNAP HQ2 camera mounted on an Olympus iX81 fluorescent microscope. For confocal microscopy analysis the cells were transfected with a plasmid expressing GFP-fused histone H1E (pH1E-GFP) using Xfect polymer (ST0152, Clontech Laboratories, CA, USA) and were stained with CytoPainter Lysosomal Staining Kit - Red Fluorescence (ab112137, Abcam, Cambridge, MA, USA). Images were collected with a Zeiss LSM700 confocal microscope.

[3] = Chemo-stability (lactone ring opening), LC-MS; type: physicochemical; conditions: chemical stability, 0.1 mM in PBS pH 7.4, 37°C, 5 h incubation, samples injected twice
Procedure: Electron spray mass spectra (ESI-MS) were obtained using an Autoflex III smart-beam (MALDI, Bruker), Q-TOF micro (Waters) or an LCQ Fleet™ ion trap mass spectrometer (Finnigan/Thermo). HPLC/LC-MS analyses were made using Agilent infinity 1260 connected to Agilent quadruple LC-MS 6120 series equipped with ZORBAX SB-C18, 50 × 2.1 mm, 1.8 μm column. In all cases the eluent solvents were A (0.1% TFA in H2O) and B (0.1% TFA in ACN) and the elution gradient profile was: 100% A for first 4 min, 8 min (from min 4 to min 12) during which it reached 100% B, 4 min (from min 12 to min 16) of 100% B, 2 min (from min 16 to min 18) during which it returned back to A, and 2 min (from min 18 to min 20) of 100% A. The UV detection was at 254 nm. Column temperature was kept at 50°C. The flow rate was of 0.4 ml/min. The MS fragmentor was tuned on 100V on positive or negative mode.
0.1 mM CPT and ALOS4-CPT were incubated in acetate buffer at pH 4.5 and in PBS at pH 7.4 at 37°C. During the incubation period (24h - 144h), aliquots were removed at different time intervals, filtered and analyzed by LC-MS.

γH2A.X in HEK293 cells = assay: Western blot, γH2A.X (DSBs) in HEK293 cells; type: cell-based, human; conditions: 3 hours
Procedure: (§2) The cells were scraped and washed with PBS buffer. Cell lysates were prepared by sonication in 1 X SDS sample buffer supplemented with protease inhibitor cocktail (MBS539134, Millipore) and boiling for 10 min. The proteins were separated by SDS-PAGE and transferred to nitrocellulose membranes. The following antibodies were used for western blotting: active caspase 3 (C8487, Sigma), γH2AX (05-636, Millipore) and histone H3 (05-928, Millipore). The band intensities in a representative experiment were quantified by the ImageJ program.

[4] = tested on: active caspase 3 in HEK293 cells; assay: Western blot, active caspase 3 in HEK293 cells; type: cell-based, human
Procedure: as §2

Structure (SMILES)	Cell survival, % of the control cells [1] [%]	Cell survival, % of the control cells [2] [%]	Intracellular localization of CPT (WM-266-4 cells)	CPT that underwent lactone ring opening to carboxylate [3] [%]	Increase in the levels of γH2A.X (γH2A.X in HEK293 cells) [fold]	Increase in the levels of active caspase 3 ([4]; 3 hours) [fold]	Increase in the levels of active caspase 3 ([4]; 24 hours)
CN(C)CCN1C(=O)c2cccc3cc(N)cc(c23)C1=O [AM, Amonafide]	48	27					
COc1cc([C@@H]2c3[nH]c4ccccc4c3C[C@H]3COC(=O)N32)cc(OC)c1O [AZA, Azatoxin]	68	44					
CC[C@@]1(O)C(=O)OCc2c1cc1n(c2=O)Cc2cc3ccccc3nc2-1 [CPT, Camptothecin]	65	16	accumulation of CPT inside the nucleus and to some less degree in the lysosome	~40	~2	~2	more than 5 fold
